# Source: PMC9374744, “Structural basis for receptor selectivity and inverse agonism in S1P5 receptors” (Nature Communications, 2022)
# Values joined by “and” are separate entries in the source; they are usually repeats but may differ in a detail not shown here. Equal values may be shown once.
# What was measured:
# human S1P5 V115A mutant = human S1P5 V115A mutant (Homo sapiens, UniProt Q9H228, V115A); assay: BRET-based cAMP Gi signaling assay, S1P5 V115A; details: V115A, Suppl. Fig. 6e
# human WT S1P5 receptor = human WT S1P5 receptor (Homo sapiens, UniProt Q9H228); assay: BRET-based cAMP (EPAC biosensor) Gi signaling assay, WT S1P5; details: WT, Suppl. Fig. 6e
# human S1P5 T79A mutant = human S1P5 T79A mutant (Homo sapiens, UniProt Q9H228, T79A); assay: BRET-based cAMP Gi signaling assay, S1P5 T79A; details: T79A, Suppl. Fig. 6c
# Sequence of human S1P5 T79A mutant (Q9H228 whole entry T79A): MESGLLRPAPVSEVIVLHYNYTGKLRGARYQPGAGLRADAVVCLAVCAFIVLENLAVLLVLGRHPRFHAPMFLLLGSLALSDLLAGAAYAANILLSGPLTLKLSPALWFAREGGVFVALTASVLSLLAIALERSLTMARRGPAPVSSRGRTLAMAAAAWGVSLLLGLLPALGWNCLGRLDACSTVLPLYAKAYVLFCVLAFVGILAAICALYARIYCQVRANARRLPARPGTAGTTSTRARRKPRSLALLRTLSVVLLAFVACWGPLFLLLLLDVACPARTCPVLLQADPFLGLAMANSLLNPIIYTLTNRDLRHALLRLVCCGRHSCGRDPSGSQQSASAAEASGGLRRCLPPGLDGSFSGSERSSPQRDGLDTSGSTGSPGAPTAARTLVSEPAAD
# Sequence of human S1P5 V115A mutant (Q9H228 whole entry V115A): as the sequence (Q9H228 whole entry T79A) above, with A79T, V115A counted along it
# Sequence of human WT S1P5 receptor (Q9H228 whole entry): as the sequence (Q9H228 whole entry T79A) above, with A79T counted along it
smiles,measurement,setting,value
"CCCCCCCCCCCCC/C=C/[C@@H](O)[C@@H](N)COP(=O)(O)O [S1P, sphingosine-1-phosphate]","BRET signal, raw replicate readings",human S1P5 V115A mutant; S1P 12500 nM,0.7675
same,"BRET signal, raw replicate readings",human S1P5 V115A mutant; S1P 25000 nM,0.7654 and 0.7708 and 0.7701 and 0.7667 and 0.7652 and 0.763 and 0.7734 and 0.7704 and 0.7743
same,"BRET signal, raw replicate readings",human WT S1P5 receptor; S1P 0.685185 nM,0.7239 and 0.7229 and 0.7227 and 0.7322 and 0.7297 and 0.7339 and 0.7264 and 0.7321 and 0.7345
same,"BRET signal, raw replicate readings",human WT S1P5 receptor; S1P 2.05556 nM,0.7237 and 0.7264 and 0.7244 and 0.734 and 0.7307 and 0.7332 and 0.7317 and 0.7311 and 0.7362
same,"BRET signal, raw replicate readings",human WT S1P5 receptor; S1P 6.16667 nM,0.7266 and 0.7231 and 0.7269 and 0.7291 and 0.734 and 0.731 and 0.7324 and 0.7315 and 0.7331
same,"BRET signal, raw replicate readings",human WT S1P5 receptor; S1P 18.5 nM,0.7325 and 0.7286 and 0.7291 and 0.731 and 0.733 and 0.7374 (2×) and 0.7372 and 0.7364
same,"BRET signal, raw replicate readings",human WT S1P5 receptor; S1P 55.5 nM,0.7419 and 0.743 and 0.7446 and 0.7524 and 0.7535 and 0.7545 and 0.7491 and 0.7497 (2×)
same,"BRET signal, raw replicate readings",human WT S1P5 receptor; S1P 185 nM,0.7589 and 0.7571 and 0.7588 and 0.7688 and 0.7682 and 0.766 and 0.76 and 0.7599 and 0.7596
same,"BRET signal, raw replicate readings",human WT S1P5 receptor; S1P 781.25 nM,0.7647 and 0.7661 and 0.7611 and 0.7735 and 0.7751 and 0.7748 and 0.7643 and 0.7625 and 0.7654
same,"BRET signal, raw replicate readings",human WT S1P5 receptor; S1P 3125 nM,0.7721 and 0.769 and 0.7694 and 0.7819 and 0.7829 and 0.7848 and 0.7658 and 0.7706 and 0.7596
same,"BRET signal, raw replicate readings",human WT S1P5 receptor; S1P 12500 nM,0.7775 and 0.7718 and 0.7733 and 0.7869 and 0.7878 and 0.7756 and 0.7691 and 0.7737 and 0.7605
same,"BRET signal, raw replicate readings",human WT S1P5 receptor; S1P 25000 nM,0.7765 and 0.7709 and 0.7762 and 0.7879 and 0.7898 and 0.785 and 0.7721 and 0.7678 and 0.7681
same,"BRET signal, raw replicates",human S1P5 T79A mutant; [S1P] 0.228395 nM,0.728 and 0.7297 and 0.7309 and 0.7306 and 0.7448 and 0.7165 and 0.733 and 0.732 and 0.7327
same,"BRET signal, raw replicates",human S1P5 T79A mutant; [S1P] 0.685185 nM,0.7302 and 0.7321 and 0.7319 and 0.7287 and 0.7311 and 0.7348 and 0.7332 and 0.7318 and 0.7294
same,"BRET signal, raw replicates",human S1P5 T79A mutant; [S1P] 2.05556 nM,0.7333 and 0.7313 and 0.7311 and 0.7385 and 0.7367 and 0.733 and 0.7328 and 0.7316 and 0.7345
same,"BRET signal, raw replicates",human S1P5 T79A mutant; [S1P] 6.16667 nM,0.7337 and 0.7364 and 0.7232 and 0.7384 and 0.7383 and 0.7348 and 0.7304 and 0.7359 and 0.7321
same,"BRET signal, raw replicates",human S1P5 T79A mutant; [S1P] 18.5 nM,0.7347 (2×) and 0.7375 and 0.7387 and 0.7386 and 0.7311 and 0.7341 and 0.7354 and 0.7312
same,"BRET signal, raw replicates",human S1P5 T79A mutant; [S1P] 55.5 nM,0.7438 and 0.7423 (2×) and 0.7417 and 0.7457 and 0.7434 and 0.7489 and 0.7415 and 0.7424
same,"BRET signal, raw replicates",human S1P5 T79A mutant; [S1P] 185 nM,0.7491 (2×) and 0.7494 and 0.7531 and 0.7514 and 0.7551 and 0.7506 and 0.752 and 0.7559
same,"BRET signal, raw replicates",human S1P5 T79A mutant; [S1P] 781.25 nM,0.7686 and 0.7529 and 0.774 and 0.7668 (2×) and 0.7667 and 0.7673 and 0.7649 and 0.7637
same,"BRET signal, raw replicates",human S1P5 T79A mutant; [S1P] 3125 nM,0.7697 and 0.7671 and 0.7674 and 0.7739 and 0.7792 and 0.7768 and 0.7709 (2×) and 0.7684
same,"BRET signal, raw replicates",human S1P5 T79A mutant; [S1P] 12500 nM,0.7734 and 0.7682 and 0.7706 and 0.7812 and 0.7771 and 0.7806 and 0.7763 and 0.7799 and 0.7701
